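Dose response: 5 concentrations. Exposure: 48 h. Format: 96-well plates. Endpoint: linear interpolation; highest concentration if not reached. GI50 is the concentration that inhibits growth by half.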 Activity calls are given as the source filed them. Cut-off read from the data, not from the text of the source: active = GI50 up to about 1.1 µM and inactive = higher.
What was measured:
Test in all cases: growth of human tumour cells (NCI), 48 h
[1] = system: NCI-H23
[2] = system: SF-539
[3] = system: SK-OV-3
[4] = system: EKVX
[5] = system: MCF7
[6] = system: HOP-92
[7] = system: SR
[8] = system: 786-0
[9] = system: SF-295
[10] = system: SK-MEL-2
[11] = system: SNB-19
[12] = system: PC-3
[13] = system: OVCAR-5
[14] = system: HCT-116
[15] = system: K562
[16] = system: MDA-MB-231
[17] = system: UACC-62

| Compound | GI50 [1] | GI50 [2] | GI50 [3] | GI50 [4] | GI50 [5] | GI50 [6] | GI50 [7] | GI50 [8] | GI50 [9] | GI50 [10] | GI50 [11] | GI50 [12] | GI50 [13] | GI50 [14] | GI50 [15] | GI50 [16] | GI50 [17] |
| --- | --- | --- | --- | --- | --- | --- | --- | --- | --- | --- | --- | --- | --- | --- | --- | --- | --- |
| COC(=O)c1cc2c(cc1CC1Cc3cc4c(cc3C1)CCC4)CCC2 | 44.4 µM (inactive) | 79.4 µM (inactive) | > 100 µM (inactive) | 52.6 µM (inactive) | 25.4 µM (inactive) | 27 µM (inactive) | 19.1 µM (inactive) | > 100 µM (inactive) | 55 µM (inactive) | 24.3 µM (inactive) | 93.3 µM (inactive) | 74.3 µM (inactive) | 43.5 µM (inactive) | 35.6 µM (inactive) | 25.8 µM (inactive) | 77.3 µM (inactive) | – |
| CCOC(=O)c1c(SCCN2CCCC2)n(-c2ccccc2)c(=S)n(-c2ccccc2)c1=O | 9.57 µM (inactive) | 2.38 µM (inactive) | 18.1 µM (inactive) | 13.9 µM (inactive) | 1.19 µM (inactive) | 1.6 µM (inactive) | 0.457 µM (active) | 1.55 µM (inactive) | 28.3 µM (inactive) | 11.4 µM (inactive) | 17.4 µM (inactive) | 1.66 µM (inactive) | 26.9 µM (inactive) | 4.27 µM (inactive) | 2.12 µM (inactive) | 2.08 µM (inactive) | 2.79 µM (inactive) |
| Cc1c(F)c(N)c2c(=O)cc(-c3ccc(NC(=O)C(N)CCCNC(=N)N)c(F)c3)oc2c1F (configuration not stated) | 27.9 µM (inactive) | 16.7 µM (inactive) | > 44.5 µM (inactive) | 17.2 µM (inactive) | 0.0893 µM (active) | 49.5 µM (inactive) | 43 µM (inactive) | 29 µM (inactive) | > 37.6 µM (inactive) | 23.4 µM (inactive) | 24.8 µM (inactive) | 30.5 µM (inactive) | 0.299 µM (active) | 13.2 µM (inactive) | – | 22.5 µM (inactive) | – |
| CCCCCc1c(CCCC)c(=O)[nH]c2cc(CNCC(OC)OC)ccc12 | 17.4 µM (inactive) | 14.8 µM (inactive) | 18.1 µM (inactive) | 16.2 µM (inactive) | 12.9 µM (inactive) | 7.41 µM (inactive) | 6.9 µM (inactive) | 4.47 µM (inactive) | 17.2 µM (inactive) | 11.7 µM (inactive) | 12.8 µM (inactive) | 12.2 µM (inactive) | 14.2 µM (inactive) | 7.11 µM (inactive) | 1.9 µM (inactive) | 15.2 µM (inactive) | 5.85 µM (inactive) |
| O=C1c2ccccc2C(=O)c2c1ccc1c2OCO1 | > 100 µM (inactive) | > 100 µM (inactive) | > 100 µM (inactive) | > 100 µM (inactive) | > 100 µM (inactive) | > 100 µM (inactive) | > 100 µM (inactive) | > 100 µM (inactive) | > 100 µM (inactive) | > 100 µM (inactive) | > 100 µM (inactive) | > 100 µM (inactive) | > 100 µM (inactive) | > 100 µM (inactive) | – | > 100 µM (inactive) | > 100 µM (inactive) |
| O=c1n(-c2ccc(Cl)c(Cl)c2)c(=O)n(-c2ccc(Cl)c(Cl)c2)c(=O)n1-c1ccc(Cl)c(Cl)c1 | 1.5 µM (inactive) | 0.769 µM (active) | 2.11 µM (inactive) | 3.5 µM (inactive) | 1.82 µM (inactive) | 0.0144 µM (active) | 3.55 µM (inactive) | 2.78 µM (inactive) | 2.47 µM (inactive) | 2.15 µM (inactive) | 5.01 µM (inactive) | 0.703 µM (active) | 3.63 µM (inactive) | 1.2 µM (inactive) | 2.06 µM (inactive) | 1.8 µM (inactive) | 4.27 µM (inactive) |
| c1ccc(Nc2nnc(Cn3ccc4ccccc43)s2)cc1 | > 100 µM (inactive) | 35.6 µM (inactive) | > 100 µM (inactive) | 50.8 µM (inactive) | 40.3 µM (inactive) | 54.7 µM (inactive) | 12.8 µM (inactive) | 52.7 µM (inactive) | 15.9 µM (inactive) | > 100 µM (inactive) | 60 µM (inactive) | 19.2 µM (inactive) | > 100 µM (inactive) | 42.7 µM (inactive) | 31.2 µM (inactive) | 38.3 µM (inactive) | 88.5 µM (inactive) |
| Cc1nc2ccc([N+](=O)[O-])cc2c(=O)n1C(=S)Nc1cccc(Cl)c1 | 13.8 µM (inactive) | 19.5 µM (inactive) | 22.5 µM (inactive) | 18.7 µM (inactive) | 17.2 µM (inactive) | 3.5 µM (inactive) | 31 µM (inactive) | 24.7 µM (inactive) | 18.3 µM (inactive) | 6.18 µM (inactive) | 27.8 µM (inactive) | 15.2 µM (inactive) | 28.2 µM (inactive) | 16 µM (inactive) | 20.7 µM (inactive) | 15.5 µM (inactive) | 12.5 µM (inactive) |
